From ChEMBL document CHEMBL1201862, “PubChem BioAssay data set” (2004)
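Briefly, cells in 96-well plates were exposed to five compound concentrations for 48 h, and endpoints were estimated by linear interpolation. The concentration for 50% growth inhibition is given as GI50.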 The source made the active and inactive calls. Rule as the data show it: active = GI50 up to about 1.1 µM and inactive = higher.

What was measured:
Experiment in all cases: NCI tumour cell line growth inhibition, 48 h
MDA-N = system: MDA-N
Hs-578T = system: Hs-578T
BT-549 = system: BT-549
M14 = system: M14
DU-145 = system: DU-145
DMS-114 = system: DMS-114
LXFL 529 = system: LXFL 529

Measured: GI50

c1csc(C(NC2=NCCO2)C2CC2)c1 (stereo unspecified)
inactive: MDA-N > 100 µM | Hs-578T > 100 µM

COc1ccc(N2C(=O)/C(=C\c3ccccc3)SC2c2cc(OC)c(OC)c(OC)c2)cc1 (stereo unspecified)
inactive: BT-549 > 100 µM | MDA-N 16.9 µM | Hs-578T 84.5 µM | M14 28.5 µM

COc1cc2c3c(c4cc(OC)c(OC)cc4c2cc1OC)C(=O)C1CCC(=O)N1C3 (stereo unspecified)
inactive: BT-549 14.8 µM | DU-145 11.5 µM | Hs-578T 3.3 µM

COc1ccc(/C=N/n2cnc3c(c2=O)S/C(=C2/SC(=S)N(c4ccc(C)cc4)C2=O)N3c2ccccc2)cc1
inactive: DMS-114 74.5 µM | LXFL 529 > 100 µM | M14 19.5 µM

Oc1ccc(-c2nc3ccc(Br)cc3s2)cc1
inactive: BT-549 18.1 µM | MDA-N 25.6 µM | DU-145 16.9 µM | M14 18.9 µM
